By IC50 is commonly meant the concentration that gives 50% inhibition. Low readings indicate greater potency in that assay, high ones weaker potency in that assay.

Where “and” joins values, the source holds several entries; their conditions need not be identical. Equal entries are not always repeated.

The test system of test [1] is mixture of 99% MX/09 and 1% oseltamivir-resistant HK/09-H275Y. Type of test: cell-based, influenza A virus H1N1.
Test [2] has as its target neuraminidase of oseltamivir-resistant pandemic 2009 H1N1 A/Hong Kong/2369/2009 [H275Y] (HK/09-H275Y) (Influenza A virus, UniProt C6KQ69). Nature of the test: biochemical. Type of test: biochemical.
Test [3] relates to oseltamivir-resistant HK/09-H275Y influenza. The class given is cell-based, influenza A virus H1N1.
Test [4] deals with HK/09-H275Y subpopulation in 99% MX/09 + 1% HK/09-H275Y infection. The class given is cell-based, influenza A virus H1N1.
In test [5] the target is neuraminidase of zanamivir-resistant seasonal 2008 H1N1 A/Brazil/1633/2008 [Q136K] (BZ/08-Q136K) (Influenza A virus, UniProt A4GBY0, Q136K). The class given is biochemical.

As for `CC(=O)N[C@H]1[C@H]([C@H](O)[C@H](O)CO)OC(C(=O)O)=C[C@@H]1N=C(N)N` [Zanamivir, zanamivir], the “viral burden lower than the no-treatment control” value in test [1] is recorded as “at least 2 log10”. 7.22 pM corresponded to half-maximal inhibition in test [2] (IC50). The “reduction of peak viral titers” value in test [3] is “approximately 4 log10 PFU/ml”.

As to Oseltamivir carboxylate, the HK/09-H275Y subpopulations in test [4] was 76% and 83%. Further, in test [1], the “effect on viral burden relative to no-treatment control” value is listed as “peak viral load equivalent to that of the no-treatment control by 72 h”. Besides, the “IC50 values (95% Confidence Interval)” value in test [2] is recorded as 15.30 (10.16 – 20.44) ng/ml; in test [5] it was 0.0028 (0.0005 – 0.0051) ng/ml.

(Values after paper PMC5694373 (European journal of pharmaceutical sciences : official …, 2017).)
